We go through 35 compounds from PMC5834442, “Identifying inhibitors of the Leishmania inositol phosphorylceramide synthase with antiprotozoal activity using a yeast-based assay and ultra-high throughput screening platform” (Scientific Reports, 2018).

Where only a bound is given, the exact number is not on record here.

The test system of the test is L. donovani (MHOM/SD/62/1S-CL2D, LdBOB) axenic amastigotes. The test is described as follows: Leishmania donovani axenic amastigote dose response assay (resazurin). It is filed as cell-based. The following applies: -logIC50 mol against L. donovani (LdBOB) axenic amastigotes, read-out: pIC50 Axenic (converted). In general terms: Resazurin is reduced to fluorescent resorufin, in cell work by metabolically active cells.
Consider `N#Cc1ccc(NCCOc2ccc3ccccc3c2)nc1` [ST/1543199], for which the IC50 is above 50 µM.
Under `CCCCCc1c(C)nc(Nc2ccccc2)[nH]c1=O` [ST/1105254] stands 17.4 µM.
The figure for `O=S(=O)(Nc1cccc(F)c1CNCc1ccco1)c1ccc(Cl)c(Cl)c1` [DS105792-055A6B42] is 19.5 µM; for `COc1ccc(C(=O)c2nocc2C(=O)c2ccc(Cl)cc2)cc1` [ST/261550] it is 44.7 µM.
For the compound `CC1CSC(N(C(=O)Cc2cccs2)c2ccc(Cl)cc2)=N1` (centres unmarked) [ST/815117], the IC50 is 33.9 µM.
Take `O=S(=O)(Nc1cc(Cl)ccc1O)c1ccc(Cl)c(Cl)c1` [R10040/200/6]: the IC50 is 12 µM.
For the compound `CNc1nc(N)c([N+](=O)[O-])c(Nc2cccc(Cl)c2)n1` [ST/537896], the IC50 was 19.5 µM.
The figure for `O=C(NCCc1ccccc1)c1ccccc1NS(=O)(=O)c1cccs1` [ST/648091] is 18.6 µM; for `O=C(O)Cc1c(-c2cccs2)nc2ccccc2c1-c1ccccc1` [ST/1080669] it is 12.9 µM.
Under `CCc1cccc(NC(=O)Nc2cc(F)ccc2F)c1` [SC/109224] stands 15.1 µM.
The figure for `c1ccc(N2CCN(c3ncc(-c4cccs4)cn3)CC2)nc1` [SC/89927] is above 50 µM; for `O=C(NC1=NN(c2ccc(Cl)c(Cl)c2)CC1)c1ccncc1` [N11828-23-3] it is above 50 µM.
`CC(C(O)(Cn1cncn1)c1ccc(F)cc1F)S(C)(=O)=O` (centres unmarked) [JCH/31/2]: the IC50 is above 50 µM.
The figure for `O=S(=O)(Nc1cccc(F)c1CNCc1ccco1)c1ccccc1Cl` [DS105792-055A7B42] is 32.4 µM; for `Cc1oc(-c2ccc(Cl)cc2)cc1C(=O)NCC(=O)c1cccs1` [ST/1260077] it is 34.7 µM; for `CC1CSC(N(C(=O)Cn2cnnn2)c2ccc(Cl)cc2)=N1` (centres unmarked) [ST/811532] it is above 50 µM.
The figure for `CCOc1cccc(C(=O)Nc2cc(-c3nc4ccccc4[nH]3)ccc2C)c1` [ST/591387] is 15.8 µM.
Under `CCOc1ccc(C(C)C)cc1S(=O)(=O)n1ccnc1` [ST/1289929] stands 10.5 µM; under `CNS(=O)(=O)c1ccc(NC(=O)c2csc(C)c2-c2ccccc2)cc1` [ST/937316], 38.9 µM; under `CCn1cc(C(=O)O)c(=O)c2cc(F)ccc21` [ST/1766829], 24.5 µM.
With `COc1cccc2[nH]c(C(=O)Nc3cccc(Cl)c3)cc12` [ST/803957], the IC50 was 12.3 µM.
The figure for `NC(=O)c1cc(-c2csc(-c3ccsc3)n2)ccc1O` [ST/1241904] is 20.9 µM; for `Cn1c(=O)c(Oc2ccc(Cl)cc2)c(O)c2ccccc21` [ST/832324] it is above 50 µM.
Under `O=C(c1cccs1)c1conc1C(=O)c1ccc(Br)cc1` [ST/261533] stands above 50 µM.
Take `Cc1cccc(Nc2cccc3c(=O)[nH][nH]c(=O)c23)c1C` [78/118]: the IC50 was above 50 µM.
As for `CSc1ccccc1NS(=O)(=O)c1cccs1` [ST/867134], the IC50 was above 50 µM.
Under `CN1CCN(CC(=O)Nc2ccc3c(c2)CCC3)CC1c1ccccc1` (centres unmarked) [ST/961462] stands above 50 µM; under `Cc1ccc(-c2nc3ccccc3[nH]2)cc1NC(=O)c1cc2ccccc2o1` [ST48766-047X8], 11.7 µM.
Under `CC(=O)N1N=C(COc2ccc(Cl)c(C)c2)OC1c1ccc(C)o1` (centres unmarked) [ST/1451045] stands 19.1 µM.
The figure for `Nc1ncc(-c2ccccc2)cc1-c1nc2ccccc2[nH]1` [U18123/163/3] is 37.2 µM.
On to `O=c1nc(SCc2ccccc2Cl)c2c([nH]1)CCCC2` [ST/1287093], for which the IC50 was above 50 µM.
Under `O=S(=O)(Nc1ccccc1C(F)(F)F)c1ccc(-c2cccs2)s1` [DJ107456-053A67] stands 14.8 µM; under `O=C(Nc1ccc(OC(F)(F)F)cc1)c1ccc(Br)s1` [ST/631944], 13.2 µM.
The figure for `O=C(Nc1oc2ccc(Cl)cc2c(=O)c1-c1ccc(Br)cc1)c1ccco1` [ST/802162] is 25.1 µM; for `Cc1ncccc1Oc1ncc(Cl)cc1S(=O)(=O)Nc1cc(Cl)ccc1F` [AV207107-102A1] it is 12.6 µM.
